According to patent US6555499B1, “Herbicide agent” (Syngenta Crop Protection, Inc., priority 1999, dated 2003):

What was measured:
[1] = system: Apera; assay: Post-emergence test, Example B1: Apera; assay type: in vivo; conditions: greenhouse, herbicide 25 g/ha, where combined cloquintocet-mexyl 6.25 g/ha, MERGE 1% by weight of spray mixture, evaluated after 2 to 4 weeks, 100%=complete destruction
From the text: (§1) A standard soil is used as cultivation substrate.
(§2) The rate of application of herbicide is in each case 25 g/ha; the rate of application of cloquintocet-mexyl is 6.25 g/ha. As oil additive, MERGE® is used in a concentration of 1% by weight of the spray mixture.

[2] = system: Alopecurus; assay: Post-emergence test, Example B1: Alopecurus; assay type: in vivo; conditions: greenhouse, herbicide 25 g/ha, where combined cloquintocet-mexyl 6.25 g/ha, MERGE 1% by weight of spray mixture, evaluated after 2 to 4 weeks, 100%=complete destruction
From the text: as §1, §2

[3] = system: Avena; assay: Post-emergence test, Example B1: Avena; assay type: in vivo; conditions: greenhouse, herbicide 25 g/ha, where combined cloquintocet-mexyl 6.25 g/ha, MERGE 1% by weight of spray mixture, evaluated after 2 to 4 weeks, 100%=complete destruction
From the text: as §1, §2

[4] = system: weeds; assay: Post-emergence test, Example B1: weeds overall, in words; assay type: in vivo, Apera, Alopecurus, Avena; conditions: herbicide 25 g/ha, where combined cloquintocet-mexyl 6.25 g/ha, MERGE 1%
From the text: as §1, §2

Structure (SMILES) | Herbicidal action on Apera [1] [%] | Herbicidal action on Alopecurus [2] [%] | Herbicidal action on Avena [3] [%] | Herbicidal action on the weeds (in words) [4]
CCc1cc(C)cc(CC)c1C1C(=O)N2CCOCCN2C1=O [compound no. 1.007] | 60 | 10 | 10 | only slight to moderate herbicidal action
CCc1cc(C)cc(CC)c1-c1c(OC(=O)C(C)(C)C)n2n(c1=O)CCOCC2 [compound no. 1.008] | 25 | 20 | 20 | only slight to moderate herbicidal action
